Data reported in patent US20080287425A1, “Method for Controlling Chinch Bugs” (FMC CORPORATION, priority 2005, published 2008).

Test system: adult southern chinch bugs
Test: LC-50 of bifenthrin on chinch bug populations, dipped St. Augustine grass stolons in Petri dishes
Format: in vivo, Blissus insularis
Conditions: about 24 hours at about 28° C
Text: Developing Chinch Bug Resistance to Bifenthrin (Synthetic Pyrethroid) Serial dilutions of bifenthrin were made from Talstar Flowable 7.9% AI (FMC, Philadelphia, Pa.). Freshly harvested St. Augustine grass stolons (about 10 cm long) were dipped into the dilutions and allowed to air dry. The stolons were placed individually into Petri dishes (15 cm diameter) containing moist filter paper to maintain high humidity. Twenty adult southern chinch bugs were placed into each Petri dish and held for about 24 hours at about 28° C. Sample sizes of adults tested ranged from 200 (20 each at 10 dose levels) to 480 (20 each at 24 dose levels) for each location to estimate LC-50 for that location. Different numbers of adults tested per location depended on availability of adults plus variability noted in testing. Since the objective of this study was to estimate LC-50 values, doses expected to give 25 to 75% mortality for best LC-50 were used. Mortality was defined as virtually no movement by an adult during a 5 minute observation period through a 5× large magnifying lens. The no movement criterion was used to avoid ambiguities of comatose, unable to stand, moribund, etc.

Cc1c(COC(=O)[C@@H]2[C@H](/C=C(\Cl)C(F)(F)F)C2(C)C)cccc1-c1ccccc1 (racemic) [bifenthrin]
LC-50 (chinch bugs from Belle Glade, control problem in the field: No): 2.6 ppm
LC-50 (chinch bugs from Clermont, control problem in the field: Yes): 78.7 ppm
LC-50 (chinch bugs from Daytona Beach, control problem in the field: Yes): 243.3 ppm
LC-50 (chinch bugs from Fort Pierce, control problem in the field: No): 2.8 ppm
LC-50 (chinch bugs from Gainesville, control problem in the field: No): 10.6 ppm
LC-50 (chinch bugs from Kendall Lakes, control problem in the field: No): 9.3 ppm
LC-50 (chinch bugs from Key Largo, control problem in the field: Yes): 148.2 ppm
LC-50 (chinch bugs from Lithia, control problem in the field: No): 5.4 ppm
LC-50 (chinch bugs from Orlando, control problem in the field: No): 2.3 ppm
LC-50 (chinch bugs from Ormond Beach, control problem in the field: Yes): 698.8 ppm
LC-50 (chinch bugs from Palm Coast, control problem in the field: Yes): 1,693 ppm
LC-50 (chinch bugs from Palmetto, control problem in the field: Yes): 493.6 ppm
LC-50 (chinch bugs from Royal Palm Beach, control problem in the field: No): 7.3 ppm
LC-50 (chinch bugs from Sarasota, control problem in the field: Yes): 89.2 ppm
LC-50 (chinch bugs from Spring Hill, control problem in the field: Yes): 159.3 ppm
LC-50 (chinch bugs from Tamarac, control problem in the field: No): 9.7 ppm
